Experimental data taken from patent US11135214B2, “Methods for enhancing the bio availability and exposure of a voltage-gated potassium channel opener” (priority 2018, dated 2021).
Several values for one entry are separate records, joined by “and”; a condition that tells them apart may be missing. Equal values may be shown once. Read-outs that look alike come from different tables or passages of the source.

Legend:
cortical excitability = experiment: TMS crossover study, TMS-evoked EEG potentials (TEPs); type: in vivo, human; details: for N45 vs pre-dose: 4 h (p=0.03)
Description: All 20 subjects underwent TMS-EMG and TMS-EEG sessions prior to dosing on Days 1 and 7 and at 2 and 4 h after dosing. […] For the 6 h timepoint, RMT was performed for 16 subjects, and AMT, EEG resting state, and TMS-EEG was performed for 8 subjects.
Compound A-induced modulation of PD markers was evaluated as an effect of time (comparisons of 2, 4, and 6 h post-dose vs. pre-dose) and of concentration (using the post-dose measure taken during highest drug exposure vs. baseline).
TMS-evoked EEG potentials (TEPs) were calculated by averaging artefact-free EEG trials in the different experimental conditions (Table 17).
The following TEP components (P=positive, N=negative) in accordance with the literature were studied, value in parenthesis is the time of interest (TOI): P25 (15-35 ms), N45 (35-70 ms), P70 (70-80 ms), N100 (80-145 ms), and P180 (145-230 ms). TOIs were chosen on the basis of the grand-averaged TEPs and kept identical during the analysis of pre-dose and post-dose measurements and across conditions. To analyze drug-induced modulation of TEPs, we selected a region of interest (ROI) that was composed of 27 channels over and around the stimulation site (left M1) and the corresponding contralateral site (‘FC1’, ‘FC3’, ‘FC5’, ‘C1’, ‘C3’, ‘C5’, ‘CP1’, ‘CP3’, ‘CP5’, ‘P1’, ‘P3’, ‘P5’, ‘Cz’, ‘CPz’, ‘Pz’, ‘FC2’, ‘FC4’, ‘FC6’, ‘C2’, ‘C4’, ‘C6’, ‘CP2’, ‘CP4’, ‘CP6’, ‘P2’, ‘P4’, ‘P6’).
To analyze significance of TEP amplitude modulations induced by Compound A, multiple dependent sample t-test comparisons (post-dose vs. pre-dose) were applied for each TOI in all the electrodes within the indicated ROI. To correct for multiple comparisons (i.e., electrodes, timepoints), we conducted a non-parametric cluster-based permutation analysis as implemented in FieldTrip.

[1] = test system: corticospinal excitability; experiment: TMS crossover study, TMS-EMG active motor threshold (AMT); type: in vivo, human; details: for Active Motor Threshold, post-dose change from baseline: individual subjects; for Active Motor Threshold, post-dose change from baseline / Active Motor Threshold, post-dose change from baseline (Mean): single 20 mg dose; for Active Motor Threshold, post-dose change from baseline (Mean): mean of subjects
Description: RMT and AMT values are reported as percentages of maximum stimulator output (% MSO). Drug-induced modulation of TMS-EMG parameters were evaluated over the 3 timepoints (2, 4, and 6 h) and for the timepoint with the highest drug exposure. AMT was recorded while subjects squeezed a manometer at 20% of each individual's maximum contraction force. […] AMT could not be registered for Subjects 912 and 940 at 2 hours after Compound A and placebo intake, respectively.

[2] = First-in-human SAD and MAD study, safety and tolerability; type: in vivo; details: for Cmax: human, plasma, oral, read-out: individual Cmax levels up to which well tolerated
Description: A first-in-human study was conducted to evaluate the safety, tolerability and pharmacokinetics (PK) of single and multiple ascending doses (SAD and MAD) of oral Compound A.
In the SAD Phase, 32 healthy volunteers were randomized (3:1) to Compound A (5, 15, 20, 25 or 30 mg) or placebo. The study featured an adaptive design. A crossover food effect cohort (N=10) was also completed with single doses of 20 mg. A sub-set of 8 male subjects were also assessed with Transcranial Magnetic Stimulation (TMS) for effects on cortical excitability (see Examples 4 and 5).
Repeat doses of Compound A (15 mg QD) were evaluated in a fasted and fed state over 7 and 10 days, respectively. Repeat doses of Compound A (25 mg QD) were also evaluated in a fed state over 10 days.
Compound A was formulated as an immediate release capsule. Serial plasma PK samples were collected for all cohorts. Safety evaluations throughout the study included adverse event (AE) monitoring, clinical laboratory tests, vital signs, ECGs, physical examinations and Columbia-Suicide Severity Rating Scale.

[3] = test system: spontaneous brain oscillations; experiment: TMS crossover study, resting state EEG; type: in vivo, human
Text: Sensor-level delta (2-4 Hz), theta (4-7 Hz), alpha (8-12 Hz) and beta (13-30 Hz) frequency activity was estimated using a Fast Fourier Transform (FFT) approach. Power of all frequencies between 2 and 30 Hz were estimated, using a frequency resolution of 0.5 Hz. A non-parametric dependent samples t-test based on a permutation approach (1500 permutations) was used to test differences between drug conditions on all EEG sensors.

[4] = at highest Compound A plasma concentration vs pre-dose

With Cc1cc(N2CCc3cc(F)ccc3C2)cc(C)c1NC(=O)CC(C)(C)C [Compound A, N-[4-(6-fluoro-3,4-dihydro-1H-isoquinolin-2-yl)-2,6-dimethylphenyl]-3,3-dimethylbutanamide] the “Modulation of TEPs, N45” value (cortical excitability; 2 h after dosing vs pre-dose) was “Not significant”, the “Modulation of TEPs, P180” value (cortical excitability; 2 h after dosing vs pre-dose) was “Not significant” and the “N15-P25 complex vs pre-dose” value (cortical excitability; all available subjects, 2 h (p=0.006) and 4 h (p=0.01)) was “decreased”. For the same compound, the P180 vs pre-dose (cortical excitability; all available subjects, 4 h (p=0.02)) was “significantly suppressed”, the N45 vs pre-dose (cortical excitability; all available subjects) was “significantly suppressed” and the “TEP amplitude P180” value (cortical excitability; concentration analysis N=16, highest plasma concentration, printed 2.2 vs 3.0 μV, p<0.01) was 2.2 μV. The “peak-to-peak amplitude of early complex N15-P25 (15 to 35 ms)” value (cortical excitability; concentration analysis N=16, highest plasma concentration, printed 4.5 vs 6.0 μV, p<0.05) was 4.5 μV, the “TEP amplitude N45” value (cortical excitability; concentration analysis N=16, highest plasma concentration, printed −2.3 vs −3.0 μV, p<0.01) was −2.3 μV and the “N15-P25 complex vs pre-dose” value (cortical excitability; subjects with drug exposure, 2 h (p=0.008) and 4 h (p=0.02)) was “decreased”. For the same compound, the P180 vs pre-dose (cortical excitability; subjects with drug exposure, 4 h (p=0.004)) was “significantly suppressed”, the N45 vs pre-dose (cortical excitability; subjects with drug exposure) was “significantly suppressed” and the N100 vs pre-dose (cortical excitability; subjects with drug exposure, 4 h (p=0.04)) was “significantly suppressed”. For the same compound, the AMT ([1]; 20 mg single dose) was “increased”, the “change from baseline in AMT vs placebo” value ([1]; 20 mg, 6 h post-dose, p<0.01) was “significantly different from placebo” and the “Active Motor Threshold, post-dose change from baseline” value ([1]; 2 h post-dose) was 2 % MSO (3×) and 4 % MSO and 0 % MSO (9×) and 3 % MSO and 1 % MSO (5×). For the same compound, the “Active Motor Threshold, post-dose change from baseline” value ([1]; 4 h post-dose) was 2 % MSO (4×) and 4 % MSO and 0 % MSO (9×) and 3 % MSO (4×) and 1 % MSO (2×), the “Active Motor Threshold, post-dose change from baseline” value ([1]; 6 h post-dose) was 0 % MSO (4×) and 6 % MSO and 1 % MSO (3×) and 2 % MSO (2×) and 3 % MSO (5×) and 4 % MSO and the “Active Motor Threshold, post-dose change from baseline (Mean)” value ([1]; 2 h post-dose) was 0.9 % MSO. The “Active Motor Threshold, post-dose change from baseline (Mean)” value ([1]; 4 h post-dose) was 1.3 % MSO, the “Active Motor Threshold, post-dose change from baseline (Mean)” value ([1]; 6 h post-dose) was 2.0 % MSO and the Cmax ([2]; multiple doses) was ≤ 107 ng/mL. The Cmax ([2]; single doses) was ≤ 104 ng/mL, the “SAEs, deaths, ECG or laboratory findings” value ([2]; single and multiple doses) was “no SAEs, deaths, or clinically significant ECG or laboratory findings” and the “severity of the majority of AEs” value ([2]; single and multiple doses, e.g. dizziness, sedation) was “mild or moderate”. The safety and tolerability ([2]; single doses of up to 30 mg and multiple doses of 25 mg QD) was “safe and well-tolerated”, the “shift of power spectra of resting state EEGs” value ([3]; 20 mg) was “toward lower frequencies” and the “Modulation of resting state EEG bands, Delta” value (from here on “Modulation … Delta”) ([3]; 2 h after dosing vs pre-dose) was “↑ Delta”. For the same compound, the “Modulation of resting state EEG bands, Theta” value (shortened to “Modulation … Theta”) ([3]; 2 h after dosing vs pre-dose) was “↑ Theta”, the “Modulation of resting state EEG bands, Beta” value ([3]; 4 h after dosing vs pre-dose) was “↑ Beta” and the “Modulation … Delta” value ([3]; 4 h after dosing vs pre-dose) was “↑ Delta”. The “Modulation … Theta” value ([3]; 4 h after dosing vs pre-dose) was “↑ Theta”, the “resting state delta power vs pre-dose” value ([3]; all available subjects, 2 h p<0.001, 4 h p<0.001) was “significantly increased” and the “resting state beta band power vs pre-dose” value ([3]; all available subjects, 2 h p=0.005, 4 h p<0.001, 6 h p=0.009) was “significantly increased”. For the same compound, the “resting state theta power vs pre-dose” value ([3]; all available subjects, 2 h p=0.006, 4 h two clusters p=0.008 and p=0.03) was “significantly increased”, the “Modulation of resting state EEG bands, Beta” value [3, 4] was “↑ Beta” and the “Modulation … Delta” value [3, 4] was “↑ Delta”. The “Modulation … Theta” value [3, 4] was “↑ Theta”, the “resting state delta power vs pre-dose” value ([3]; concentration analysis N=16, high plasma exposure, p<0.001) was “increase in power” and the “resting state beta power vs pre-dose” value ([3]; concentration analysis N=16, high plasma exposure, p=0.005) was “increase in power”. The “resting state theta power vs pre-dose” value ([3]; concentration analysis N=16, high plasma exposure, p=0.01) was “increase in power”, the “resting state delta power compared to placebo” value ([3]; post-dose minus pre-dose, p<0.001) was “overall increase of power” and the “resting state beta power compared to placebo” value ([3]; post-dose minus pre-dose, p=0.003) was “overall increase of power”. For the same compound, the “resting state theta power compared to placebo” value ([3]; post-dose minus pre-dose, p=0.02) was “overall increase of power”, the “resting state delta power vs pre-dose” value ([3]; subjects with drug exposure, 2 h p=0.001, 4 h p<0.001) was “significantly increased” and the “resting state beta band power vs pre-dose” value ([3]; subjects with drug exposure, 2 h p=0.01, 4 h p<0.001) was “significantly increased”. For the same compound, the “resting state theta power vs pre-dose” value ([3]; subjects with drug exposure, 2 h p=0.01, 4 h p=0.01) was “significantly increased”.
